Results published in ChEMBL document CHEMBL4190197, “Nepetaefolins A-J, Cytotoxic Chinane and Abietane Diterpenoids from Caryopteris nepetaefolia” (J Nat Prod, 2017).

Experiments:
Format in all cases: functional
Conditions in all cases: Homo sapiens, 144 h
[1] = Antiproliferative activity against non-small cell lung cancer patient-derived LUPF045 cells after 6 days by ATP-TCA method
[2] = Antiproliferative activity against non-small cell lung cancer patient-derived LUPF003 cells after 6 days by ATP-TCA method
[3] = Antiproliferative activity against ovarian cancer patient-derived OVPF038 cells after 6 days by ATP-TCA method
[4] = Antiproliferative activity against ovarian cancer patient-derived OVPF008 cells after 6 days by ATP-TCA method

Compound	IC50 [1]	IC50 [2]	IC50 [3]	IC50 [4]
CC(C)[C@]12C=C3CC[C@@H]4[C@](C)(CCC[C@]4(C)C(=O)O)[C@]3(CC1)OO2	> 50 µM	–	–	–
CC(=O)OC[C@@]1(C)[C@@H](O)CC[C@]2(C)c3ccc(C(C)C)cc3CC[C@@H]12	6.3 µM	31.5 µM	12.7 µM	7.9 µM
C=C(C)c1ccc2c(c1)CC[C@H]1C3=C(CC[C@]21C)C(=O)OC3	9 µM	11.7 µM	19.3 µM	16.8 µM
CC(C)[C@]12C=C3CC[C@H]4[C@@](C)(CO)[C@@H](O)CC[C@]4(C)[C@]3(CC1)OO2	> 50 µM	–	–	–
CC(C)(O)c1cc2c(cc1O)[C@@]1(C)CCC3=C(COC3=O)[C@@H]1CC2	–	44.7 µM	> 50 µM	> 50 µM
CC(C)[C@@]12C=C3CC[C@H]4[C@@](C)(CO)[C@@H](O)CC[C@]4(C)[C@]3(CC1)OO2	49.7 µM	–	> 50 µM	> 50 µM
C=C(C)c1cc2c(cc1O)[C@@]1(C)CCC3=C(COC3=O)[C@@H]1CC2	49.6 µM	43.8 µM	> 50 µM	–
CC(=O)O[C@H]1C(=O)[C@@]2(C)[C@H]([C@H](OC(=O)c3ccccc3)[C@]3(O)C[C@H](OC(=O)[C@H](O)[C@@H](NC(=O)c4ccccc4)c4ccccc4)C(C)=C1C3(C)C)[C@]1(OC(C)=O)CO[C@@H]1C[C@@H]2O [PACLITAXEL]	11.2 µM	11 µM	1.4 µM	1.1 µM
